# Data: ChEMBL document CHEMBL1201862, “PubChem BioAssay data set” (2004)
# Calls of active or inactive are those of the source.
# What was measured:
# [1] = target: Guanyl-specific ribonuclease T1 (Aspergillus oryzae (strain ATCC 42149 / RIB 40), UniProt P00651); assay: inhibition of ribonuclease T1 activity – biochemical, fluorescence polarization, 1536-well, counter-screen for TPT1 inhibitor project, dose response (AID 2167)
# [2] = target: Likely tRNA 2'-phosphotransferase (Candida albicans (strain SC5314 / ATCC MYA-2876) (Yeast), UniProt Q5A7N4); assay: inhibition of Candida TPT1 enzyme activity – biochemical, fluorescence polarization, dose response (AID 2160)
# Sequence of Likely tRNA 2'-phosphotransferase (Q5A7N4 whole entry): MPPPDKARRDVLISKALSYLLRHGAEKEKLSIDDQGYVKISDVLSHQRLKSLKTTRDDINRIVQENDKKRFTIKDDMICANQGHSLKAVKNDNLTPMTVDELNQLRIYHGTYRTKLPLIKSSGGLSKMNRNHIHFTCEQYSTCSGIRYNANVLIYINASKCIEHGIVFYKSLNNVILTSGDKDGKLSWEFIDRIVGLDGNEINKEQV
# [3] = Trypanosoma cruzi growth suppression in host cells – NIH3T3 host cells, beta-gal luminescence, confirmation (AID 2044); type: functional, cell-based;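 note: intracellular parasites grown in NIH/3T3 mouse fibroblasts as host cells; luminescent beta-galactosidase reporter signal from transgenic T. cruzi replicating inside host cells; inhibitors lower the luminescence signal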
# [4] = NIH3T3 cell viability loss – ATP luminescence, mouse fibroblasts, counter-screen, dose response (AID 2010); type: functional, cell-based;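 note: cells exposed to compound for about 90 hours before reading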
# [5] = target: T1, Replicative DNA helicase DnaB (Mycobacterium tuberculosis, UniProt P9WMR3); assay: DnaB intein splicing inhibitors, dose response, biochemical, cell-free fluorescence (AID 449749); type: functional
# T1 sequence (P9WMR3 whole entry): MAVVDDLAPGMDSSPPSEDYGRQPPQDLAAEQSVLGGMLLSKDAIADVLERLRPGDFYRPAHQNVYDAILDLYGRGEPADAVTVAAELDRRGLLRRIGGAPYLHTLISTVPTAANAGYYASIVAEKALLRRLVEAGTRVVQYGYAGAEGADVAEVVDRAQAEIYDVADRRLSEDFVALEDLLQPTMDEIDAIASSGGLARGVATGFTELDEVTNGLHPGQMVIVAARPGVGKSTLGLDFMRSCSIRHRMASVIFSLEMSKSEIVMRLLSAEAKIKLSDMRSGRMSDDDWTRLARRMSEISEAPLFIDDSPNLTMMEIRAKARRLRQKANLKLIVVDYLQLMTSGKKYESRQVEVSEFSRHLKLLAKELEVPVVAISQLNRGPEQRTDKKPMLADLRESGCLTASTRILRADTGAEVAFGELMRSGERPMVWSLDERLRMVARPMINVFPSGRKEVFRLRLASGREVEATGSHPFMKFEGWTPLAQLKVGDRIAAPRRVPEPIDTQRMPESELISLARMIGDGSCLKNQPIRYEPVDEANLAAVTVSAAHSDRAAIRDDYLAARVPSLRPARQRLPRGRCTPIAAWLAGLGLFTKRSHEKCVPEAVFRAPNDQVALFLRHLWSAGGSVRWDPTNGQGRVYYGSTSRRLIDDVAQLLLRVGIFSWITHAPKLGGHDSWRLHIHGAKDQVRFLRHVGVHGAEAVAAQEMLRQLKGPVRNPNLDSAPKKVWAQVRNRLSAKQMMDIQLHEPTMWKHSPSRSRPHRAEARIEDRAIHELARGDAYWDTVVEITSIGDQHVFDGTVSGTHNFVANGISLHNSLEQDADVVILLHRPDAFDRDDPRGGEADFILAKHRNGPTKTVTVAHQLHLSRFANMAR
# [6] = target: T2, Protein RecA (Mycobacterium tuberculosis, UniProt P9WHJ3); assay: Fluorescence Cell-Free Homogeneous Dose Retest to Identify Inhibitors of RecA-Intein Splicing Activity. [Related pubchem assays (depositor defined):AID2097, AID2223, AID489010, AID492950]; type: functional
# T2 sequence (P9WHJ3 whole entry): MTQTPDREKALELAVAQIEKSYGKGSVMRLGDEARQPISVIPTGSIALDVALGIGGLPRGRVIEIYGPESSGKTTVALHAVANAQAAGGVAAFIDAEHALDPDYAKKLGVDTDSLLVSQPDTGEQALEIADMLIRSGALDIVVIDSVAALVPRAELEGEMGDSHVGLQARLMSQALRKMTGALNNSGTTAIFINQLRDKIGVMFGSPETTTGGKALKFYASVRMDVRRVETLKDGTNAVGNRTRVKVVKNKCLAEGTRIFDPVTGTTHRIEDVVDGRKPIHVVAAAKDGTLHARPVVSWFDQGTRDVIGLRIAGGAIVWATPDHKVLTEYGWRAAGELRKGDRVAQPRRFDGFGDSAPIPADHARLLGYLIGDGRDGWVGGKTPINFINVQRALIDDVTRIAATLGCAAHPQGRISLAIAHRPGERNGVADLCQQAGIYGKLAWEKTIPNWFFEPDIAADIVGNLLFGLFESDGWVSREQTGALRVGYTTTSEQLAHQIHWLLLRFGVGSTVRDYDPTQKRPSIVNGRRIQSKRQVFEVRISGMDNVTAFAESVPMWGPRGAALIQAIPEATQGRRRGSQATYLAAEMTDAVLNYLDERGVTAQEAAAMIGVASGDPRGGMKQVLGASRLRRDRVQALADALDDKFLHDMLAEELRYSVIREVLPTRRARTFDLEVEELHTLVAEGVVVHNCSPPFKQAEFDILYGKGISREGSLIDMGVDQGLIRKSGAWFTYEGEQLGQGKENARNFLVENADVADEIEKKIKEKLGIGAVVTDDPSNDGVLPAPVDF
# [7] = IC50 of Artemis nuclease activity blockers – biochemical, fluorescence intensity, dose response (AID 720701); type: functional;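 note: Artemis endonuclease enzyme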
# [8] = target: Cytochrome P450 2D6 (Homo sapiens, UniProt P10635); assay: qHTS Assay for Inhibitors and Substrates of Cytochrome P450 2D6. [Related pubchem assays: 410 ]; type: ADME; settings: read-out: Potency
# Sequence of Cytochrome P450 2D6 (P10635 whole entry): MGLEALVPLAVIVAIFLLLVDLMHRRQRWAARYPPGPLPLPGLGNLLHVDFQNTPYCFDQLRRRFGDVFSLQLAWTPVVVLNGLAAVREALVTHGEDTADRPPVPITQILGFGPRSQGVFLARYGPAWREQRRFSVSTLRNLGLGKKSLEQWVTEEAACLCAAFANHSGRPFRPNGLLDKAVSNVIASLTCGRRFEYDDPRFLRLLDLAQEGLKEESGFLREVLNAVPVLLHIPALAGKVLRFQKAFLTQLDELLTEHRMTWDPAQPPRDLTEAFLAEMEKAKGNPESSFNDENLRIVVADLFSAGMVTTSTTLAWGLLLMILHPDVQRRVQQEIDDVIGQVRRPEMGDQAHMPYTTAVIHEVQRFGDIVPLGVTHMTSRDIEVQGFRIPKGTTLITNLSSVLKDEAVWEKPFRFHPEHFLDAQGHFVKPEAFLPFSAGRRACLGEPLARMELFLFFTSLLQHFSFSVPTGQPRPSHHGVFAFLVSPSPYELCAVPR
# [9] = target: T3, Heat shock 70 kDa protein 1A (Homo sapiens, UniProt P0DMV8); assay: small-molecule inhibition of Hsp70 – biochemical, TR-FRET (AID 786)
# T3 sequence (P0DMV8 whole entry): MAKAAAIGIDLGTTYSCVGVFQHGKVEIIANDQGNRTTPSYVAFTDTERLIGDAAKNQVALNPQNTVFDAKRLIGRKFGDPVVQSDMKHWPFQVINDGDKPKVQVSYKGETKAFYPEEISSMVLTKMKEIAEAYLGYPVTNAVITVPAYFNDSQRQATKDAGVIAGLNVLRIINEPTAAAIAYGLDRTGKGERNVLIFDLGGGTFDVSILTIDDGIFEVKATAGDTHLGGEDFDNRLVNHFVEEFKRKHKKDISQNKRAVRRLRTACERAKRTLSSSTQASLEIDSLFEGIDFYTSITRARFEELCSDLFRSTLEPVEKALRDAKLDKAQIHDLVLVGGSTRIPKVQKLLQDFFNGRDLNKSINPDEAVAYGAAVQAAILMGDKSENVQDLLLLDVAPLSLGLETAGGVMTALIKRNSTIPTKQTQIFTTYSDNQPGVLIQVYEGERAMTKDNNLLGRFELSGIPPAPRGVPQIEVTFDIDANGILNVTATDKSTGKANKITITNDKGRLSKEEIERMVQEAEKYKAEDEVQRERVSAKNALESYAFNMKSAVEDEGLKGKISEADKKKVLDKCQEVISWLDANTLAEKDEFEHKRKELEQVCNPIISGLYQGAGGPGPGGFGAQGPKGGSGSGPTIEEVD
# [10] = target: T3, Heat shock 70 kDa protein 1A; assay: small molecules displacing fluorescent ligand from Hsp70 – biochemical, fluorescence polarization, primary screen (AID 583)
# [11] = target: Eukaryotic translation initiation factor 4H (Homo sapiens, UniProt Q15056); assay: eIF4H binding inhibition – biochemical, uHTS, fluorescence polarization, translation initiation inhibitor project, primary screen (AID 2012)
# [12] = target: Polyadenylate-binding protein 1 (Homo sapiens, UniProt P11940); assay: blockers of PABP interaction with poly(A) – biochemical, fluorescence polarization, […] (AID 2014)
# Sequence of Polyadenylate-binding protein 1 (P11940 whole entry): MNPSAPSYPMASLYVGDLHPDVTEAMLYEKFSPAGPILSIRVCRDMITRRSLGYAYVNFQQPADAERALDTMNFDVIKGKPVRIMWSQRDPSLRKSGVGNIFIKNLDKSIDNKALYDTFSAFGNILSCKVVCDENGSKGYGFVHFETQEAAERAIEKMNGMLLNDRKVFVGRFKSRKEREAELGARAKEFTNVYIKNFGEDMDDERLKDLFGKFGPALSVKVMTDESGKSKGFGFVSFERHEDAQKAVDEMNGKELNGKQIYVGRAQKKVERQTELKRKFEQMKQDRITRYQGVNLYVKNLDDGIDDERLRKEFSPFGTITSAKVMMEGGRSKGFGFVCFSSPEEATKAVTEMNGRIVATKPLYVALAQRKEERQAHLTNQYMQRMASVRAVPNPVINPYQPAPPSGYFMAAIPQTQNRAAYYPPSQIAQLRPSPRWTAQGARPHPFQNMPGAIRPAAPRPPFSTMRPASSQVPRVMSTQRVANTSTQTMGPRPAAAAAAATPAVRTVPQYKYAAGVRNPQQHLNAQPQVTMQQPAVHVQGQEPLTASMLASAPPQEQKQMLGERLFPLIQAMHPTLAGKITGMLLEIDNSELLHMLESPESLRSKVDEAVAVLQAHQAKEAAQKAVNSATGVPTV
# [13] = target: Galanin receptor type 2 (Homo sapiens, UniProt O43603); assay: Dose Response cell-based high-throughput screening assay to identify antagonists of galanin receptor 2 (GALR2). [Related pubchem assays: 828, 866 ]; type: functional
# Sequence of Galanin receptor type 2 (O43603 whole entry): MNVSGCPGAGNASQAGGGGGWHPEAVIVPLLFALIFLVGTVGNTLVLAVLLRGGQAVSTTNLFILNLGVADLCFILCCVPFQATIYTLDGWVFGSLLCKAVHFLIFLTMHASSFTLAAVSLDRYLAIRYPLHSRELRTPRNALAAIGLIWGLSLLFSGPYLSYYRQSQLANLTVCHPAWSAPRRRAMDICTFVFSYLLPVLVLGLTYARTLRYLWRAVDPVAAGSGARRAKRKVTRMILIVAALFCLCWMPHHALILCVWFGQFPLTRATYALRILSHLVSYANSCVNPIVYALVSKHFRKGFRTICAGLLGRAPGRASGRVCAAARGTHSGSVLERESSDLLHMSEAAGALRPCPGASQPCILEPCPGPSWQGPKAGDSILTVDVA
# [14] = target: Vasopressin V1a receptor (Homo sapiens, UniProt P37288); assay: Counterscreen for Oxytocin Receptor (OXTR) agonists: Fluorescence-based cell-based high throughput dose response assay to identify agonists of the vasopressin 1 receptor (V1R). [Related pubchem assays: 2435 (Primary screen (OXTR agonists in singlicate)), 434991 (Counterscreen (V1R agonists in triplicate)), 2482 (Summary (OXTR agonists)) …; type: functional
# [15] = target: Ion channel NompC (Danio rerio, UniProt Q7T1G6); assay: Dose response cell-based high-throughput screening assay for agonists of the transient receptor potential channel N1 (TRPN1). [Related pubchem assays (depositor defined):AID1424, AID1448]; type: functional
# [16] = target: Oxytocin receptor (Homo sapiens, UniProt P30559); assay: Fluorescence-based cell-based high throughput dose response assay for agonists of the Oxytocin Receptor (OXTR). [Related pubchem assays: 2435 (Primary screen (OXTR agonists in singlicate)), 434991 (Counterscreen (V1R agonists in triplicate)), 2482 (Summary (OXTR agonists)), 434963 (Confirmation screen (OXTR agonists in triplicate))]; type: functional
# Sequence of Oxytocin receptor (P30559 whole entry): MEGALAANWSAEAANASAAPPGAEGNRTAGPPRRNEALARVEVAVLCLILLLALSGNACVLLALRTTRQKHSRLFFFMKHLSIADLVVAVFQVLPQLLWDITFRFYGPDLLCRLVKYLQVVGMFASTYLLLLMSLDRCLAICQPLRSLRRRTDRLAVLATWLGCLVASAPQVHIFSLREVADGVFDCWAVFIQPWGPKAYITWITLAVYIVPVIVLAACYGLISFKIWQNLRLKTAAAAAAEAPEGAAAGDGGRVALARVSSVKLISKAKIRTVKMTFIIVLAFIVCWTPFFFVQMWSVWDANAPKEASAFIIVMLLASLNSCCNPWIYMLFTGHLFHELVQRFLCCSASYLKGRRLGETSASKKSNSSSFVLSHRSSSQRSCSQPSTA
# [17] = target: T4, Mucolipin-3 (Homo sapiens, UniProt Q8TDD5); assay: Fluorescence counterscreen assay for […] agonists: dose response cell-based high-throughput screening assay to identify agonists of the transient receptor potential channel ML3 (TRPML3). [Related pubchem assays: 1424, 1448 ]; type: functional
# T4 sequence (Q8TDD5 whole entry): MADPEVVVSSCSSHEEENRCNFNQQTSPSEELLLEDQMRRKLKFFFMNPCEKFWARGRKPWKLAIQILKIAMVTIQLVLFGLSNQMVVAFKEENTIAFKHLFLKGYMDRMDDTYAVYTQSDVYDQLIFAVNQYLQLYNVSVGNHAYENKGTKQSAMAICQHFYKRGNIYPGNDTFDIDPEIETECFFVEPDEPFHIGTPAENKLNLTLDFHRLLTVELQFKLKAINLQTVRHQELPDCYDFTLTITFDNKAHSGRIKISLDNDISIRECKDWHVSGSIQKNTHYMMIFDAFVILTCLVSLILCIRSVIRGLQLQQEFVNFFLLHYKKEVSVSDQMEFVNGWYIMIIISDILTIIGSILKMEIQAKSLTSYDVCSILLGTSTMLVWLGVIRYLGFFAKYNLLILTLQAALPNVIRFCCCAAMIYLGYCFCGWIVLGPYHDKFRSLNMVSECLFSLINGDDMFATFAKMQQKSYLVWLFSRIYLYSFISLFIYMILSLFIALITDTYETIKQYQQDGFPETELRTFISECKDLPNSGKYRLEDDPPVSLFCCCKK
# [18] = target: Aspartyl aminopeptidase (Plasmodium falciparum 3D7, UniProt Q8I2J3)
# Sequence of Aspartyl aminopeptidase (Q8I2J3 whole entry): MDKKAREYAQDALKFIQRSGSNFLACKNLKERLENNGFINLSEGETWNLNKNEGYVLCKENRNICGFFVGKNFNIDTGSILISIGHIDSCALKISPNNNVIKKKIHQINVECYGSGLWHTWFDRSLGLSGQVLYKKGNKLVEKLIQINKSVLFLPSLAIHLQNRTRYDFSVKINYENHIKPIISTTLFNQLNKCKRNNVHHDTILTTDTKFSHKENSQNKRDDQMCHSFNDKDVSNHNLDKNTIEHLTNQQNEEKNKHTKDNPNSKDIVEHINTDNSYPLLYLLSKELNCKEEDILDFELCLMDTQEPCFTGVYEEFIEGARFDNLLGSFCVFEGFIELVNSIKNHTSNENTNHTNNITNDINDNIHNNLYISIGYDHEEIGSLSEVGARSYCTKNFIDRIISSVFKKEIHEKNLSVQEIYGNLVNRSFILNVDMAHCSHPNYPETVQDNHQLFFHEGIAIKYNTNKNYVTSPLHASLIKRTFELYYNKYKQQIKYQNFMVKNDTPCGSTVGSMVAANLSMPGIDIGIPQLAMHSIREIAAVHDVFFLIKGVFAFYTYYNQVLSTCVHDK
# [19] = target: Procathepsin L (Homo sapiens, UniProt P07711)
# Sequence of Procathepsin L (P07711 whole entry): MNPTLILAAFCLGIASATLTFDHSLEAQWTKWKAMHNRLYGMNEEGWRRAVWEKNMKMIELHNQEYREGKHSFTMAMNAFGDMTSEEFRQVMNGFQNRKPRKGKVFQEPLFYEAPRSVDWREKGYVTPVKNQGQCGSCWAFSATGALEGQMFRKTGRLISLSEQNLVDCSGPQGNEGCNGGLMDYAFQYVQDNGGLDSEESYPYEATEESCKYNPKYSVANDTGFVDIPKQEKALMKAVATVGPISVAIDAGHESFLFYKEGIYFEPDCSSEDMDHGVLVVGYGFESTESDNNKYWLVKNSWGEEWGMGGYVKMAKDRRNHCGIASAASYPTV
# [20] = target: Large T antigen (Simian virus 40, UniProt P03070); type: functional, Betapolyomavirus macacae;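 note: Confirmatory-stage PubChem screen for compounds that inhibit SV40 T antigen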
# [21] = microbe, parasite or virus in culture; type: functional; settings: Mycobacterium tuberculosis
# [22] = target: Mannose-6-phosphate isomerase (Homo sapiens, UniProt P34949); assay: MPI inhibition at elevated mannose 6-phosphate – biochemical, fluorescence intensity, high mannose 6-phosphate, primary screen (AID 1220)
# Sequence of Mannose-6-phosphate isomerase (P34949 whole entry): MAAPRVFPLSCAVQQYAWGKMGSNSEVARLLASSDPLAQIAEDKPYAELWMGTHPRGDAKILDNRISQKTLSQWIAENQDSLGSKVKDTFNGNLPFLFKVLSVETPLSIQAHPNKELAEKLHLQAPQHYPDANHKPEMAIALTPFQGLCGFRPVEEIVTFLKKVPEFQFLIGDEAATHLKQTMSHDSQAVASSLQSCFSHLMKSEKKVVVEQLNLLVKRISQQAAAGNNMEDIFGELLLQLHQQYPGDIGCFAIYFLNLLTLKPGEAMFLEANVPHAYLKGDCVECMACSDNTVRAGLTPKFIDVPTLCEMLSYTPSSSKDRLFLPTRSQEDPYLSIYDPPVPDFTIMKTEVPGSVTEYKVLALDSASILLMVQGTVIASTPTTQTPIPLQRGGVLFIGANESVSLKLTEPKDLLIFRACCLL
# [23] = target: DNA dC->dU-editing enzyme APOBEC-3A (Homo sapiens, UniProt P31941); assay: A3A deaminase inhibition for selectivity – biochemical, dose response (AID 504722); type: functional
# [24] = target: T5, Hexokinase (Trypanosoma brucei, UniProt Q38C41); assay: Confirmation assay for inhibitors of Trypanosoma brucei hexokinase 1-Analogue-first series. [Related pubchem assays (depositor defined):AID1430, AID1632, AID2516, AID2560, AID2579, AID2600, AID449725, AID492951]; type: functional
# T5 sequence (Q38C41 whole entry): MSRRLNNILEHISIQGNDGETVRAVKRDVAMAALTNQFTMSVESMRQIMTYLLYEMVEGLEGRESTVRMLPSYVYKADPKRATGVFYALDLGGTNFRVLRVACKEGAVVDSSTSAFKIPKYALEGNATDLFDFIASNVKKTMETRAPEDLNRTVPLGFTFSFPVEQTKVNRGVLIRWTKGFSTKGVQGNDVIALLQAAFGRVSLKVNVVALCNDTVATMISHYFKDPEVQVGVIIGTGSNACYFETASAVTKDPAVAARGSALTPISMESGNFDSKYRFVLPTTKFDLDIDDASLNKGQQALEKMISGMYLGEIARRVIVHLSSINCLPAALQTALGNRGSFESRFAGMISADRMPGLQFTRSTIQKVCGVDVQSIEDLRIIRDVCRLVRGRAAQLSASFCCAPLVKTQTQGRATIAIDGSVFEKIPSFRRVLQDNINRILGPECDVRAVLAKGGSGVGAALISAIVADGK
# [25] = target: Glucose-6-phosphate 1-dehydrogenase (Homo sapiens, UniProt P11413); assay: inhibition of Homo sapiens G6PD, dose series – biochemical, fluorescence, selectivity assay for P. falciparum G6PD inhibitor project, dose response (AID 504792); type: functional
# [26] = THP-1 cell cytotoxicity, dose response, cytotoxicity control for non-replicating M. tuberculosis project (AID 489025); type: functional
# [27] = target: Eukaryotic translation initiation factor 4E (Mus musculus, UniProt P63073); assay: blockers of eIF4G binding by eIF4E – biochemical, TR-FRET, dose response (AID 855); type: functional;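 note: potency for disrupting eIF4E binding to eIF4GI seen as loss of FRET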
# Sequence of Eukaryotic translation initiation factor 4E (P63073 whole entry): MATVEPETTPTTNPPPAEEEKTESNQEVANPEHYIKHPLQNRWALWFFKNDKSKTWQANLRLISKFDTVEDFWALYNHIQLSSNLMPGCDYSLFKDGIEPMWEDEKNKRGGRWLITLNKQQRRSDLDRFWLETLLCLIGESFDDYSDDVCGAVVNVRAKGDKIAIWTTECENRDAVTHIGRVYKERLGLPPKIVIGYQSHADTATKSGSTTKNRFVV
# [28] = target: DNA dC->dU-editing enzyme APOBEC-3G (Homo sapiens, UniProt Q9HC16); assay: Dose Response confirmation of small molecule APOBEC3G DNA Deaminase Inhibitors via a fluorescence-based single-stranded DNA deaminase assay. [Related pubchem assays (depositor defined):AID493012, AID493028]; type: functional
# [29] = Vero E6 cell cytotoxicity, dose response, cytotoxicity control for non-replicating M. tuberculosis project, secondary assay (AID 492998); type: functional, VeroE6; settings: Vero C1008
# [30] = cells; type: functional
# [31] = target: Mitochondrial peptide methionine sulfoxide reductase (Bos taurus, UniProt P54149); assay: Absorbance-based biochemical high throughput dose response assay for activators of Methionine sulfoxide reductase A (MsrA).; type: functional
# Sequence of Mitochondrial peptide methionine sulfoxide reductase (P54149 whole entry): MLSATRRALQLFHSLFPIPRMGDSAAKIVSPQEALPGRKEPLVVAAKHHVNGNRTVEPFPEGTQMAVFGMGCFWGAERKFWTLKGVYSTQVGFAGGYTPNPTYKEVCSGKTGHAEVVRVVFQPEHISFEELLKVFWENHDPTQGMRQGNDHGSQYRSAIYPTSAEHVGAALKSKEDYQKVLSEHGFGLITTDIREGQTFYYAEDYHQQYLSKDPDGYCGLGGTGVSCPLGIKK
# [32] = viability inhibitors of stage V gametocytes – luminescence, dose response (AID 1117278); type: functional, cell-based;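 note: gametocytes exposed to compound for 24 hours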
# [33] = viability loss in human Jurkat cells – cell-based, luminescence, cytotoxicity control for P. falciparum gametocyte viability project, dose response (AID 1117277); type: functional;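 note: potency reflects loss of cellular ATP meaning fewer viable cells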
# Sequence of Guanyl-specific ribonuclease T1 (P00651 whole entry): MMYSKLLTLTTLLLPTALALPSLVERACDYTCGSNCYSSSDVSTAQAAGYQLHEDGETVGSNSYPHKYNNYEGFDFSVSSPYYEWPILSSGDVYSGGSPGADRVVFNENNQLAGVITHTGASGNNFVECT
structure (smiles),measurement,setting,value
Cc1ccc2nc(N/N=C\c3ccc([N+](=O)[O-])o3)nc(-c3ccccc3)c2c1,IC50,[1],> 55.7 µM (not active)
same,IC50,[2],> 55.7 µM (not active)
same,EC50,[3],0.176 µM (active)
same,EC50,[4],9.01 µM (active)
same,AC50,[5],> 380 µM (inactive)
same,EC50,[6],208 µM (inconclusive)
same,IC50,[7],> 20 µM (inactive)
COC(=O)[C@@H]1C[C@H]1[C@@H](NC(=O)OCc1ccccc1)c1ccccc1,AC50,[8],12.6 µM (inconclusive)
Cc1c(NC(=O)Nc2ccc(Cl)cc2)c(=O)n(-c2ccccc2)n1C,IC50,[9],> 100 µM (not active)
same,IC50,[10],> 100 µM (not active)
O=C1C=C(NCc2ccc(Cl)cc2)CC(c2ccco2)C1 (stereo not drawn),IC50,[11],41.3 µM (active)
same,IC50,[12],64.6 µM (active)
C/N=c1\[nH]c2cc([N+](=O)[O-])c([N+](=O)[O-])cc2[nH]\c1=N\C,IC50,[13],1.29 µM (active)
same,EC50,[14],> 29.9 µM (not active)
same,EC50,[15],> 29.9 µM (inactive)
same,EC50,[16],> 29.9 µM (not active)
same,EC50,[17],> 29.9 µM (not active)
Cc1ccccc1-n1sc2cc(F)ccc2c1=O,IC50,[18],0.648 µM (active)
same,IC50,[19],> 59.6 µM (not active)
same,IC50,[20],13.1 µM (active)
same,CC50,[21],13 µM (active)
same,IC50,[22],8.95 µM (active)
same,IC50,[23],> 100 µM (inactive)
same,IC50,[24],4.8 µM (active)
same,IC50,[25],13.9 µM (active)
same,CC50,[26],19 µM (active)
same,IC50,[27],36.7 µM (inactive)
same,IC50,[28],9.02 µM (active)
same,CC50,[29],12.1 µM (active)
same,IC50,[30],23.7 µM (active)
same,EC50,[31],> 104 µM (inactive)
same,IC50,[32],39.6 µM (inactive)
same,IC50,[33],6.73 µM (active)
